{
  "source": "patent US20080009418A1",
  "about": "“Selective Inhibitors” (Alchemia LTD., priority 2004, published 2008)",
  "settings_in_all_cases": "compound at 10 μM",
  "key": {"[1]": {"biological_target": "T1, Human neurokinin (NK1) (Homo sapiens, UniProt P25103)", "T1 construct": "purchased Perkin Elmer Biosignal", "T1 sequence (P25103 whole entry)": "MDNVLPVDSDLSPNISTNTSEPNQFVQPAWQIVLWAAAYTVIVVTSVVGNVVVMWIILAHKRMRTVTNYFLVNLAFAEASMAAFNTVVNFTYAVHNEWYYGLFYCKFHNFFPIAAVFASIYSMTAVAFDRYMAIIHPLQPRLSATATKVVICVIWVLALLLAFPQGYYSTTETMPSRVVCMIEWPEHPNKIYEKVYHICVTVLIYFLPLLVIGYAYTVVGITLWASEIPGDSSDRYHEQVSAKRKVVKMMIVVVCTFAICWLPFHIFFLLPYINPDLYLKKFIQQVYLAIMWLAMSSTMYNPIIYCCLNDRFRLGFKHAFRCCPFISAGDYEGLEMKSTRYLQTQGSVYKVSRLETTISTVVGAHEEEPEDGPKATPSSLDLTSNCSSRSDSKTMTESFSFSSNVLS", "assay": "Radioligand binding, human neurokinin NK1 membranes, filtration, [125I]-Substance P", "outline": "(§1)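 Membranes from cloned human receptors were incubated with compound and radioligand for 1 hour at room temperature. Bound ligand was collected on 0.3% PEI-soaked filters, washed with cold 50 mM Tris-HCl pH 7.4, and counted by scintillation. Percent inhibition was computed against DMSO totals and reference-ligand nonspecific wells.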"}, "[2]": {"biological_target": "T2, Human melanocortin (MC5) (Homo sapiens, UniProt P33032)", "T2 construct": "purchased Perkin Elmer Biosignal", "T2 sequence (P33032 whole entry)": "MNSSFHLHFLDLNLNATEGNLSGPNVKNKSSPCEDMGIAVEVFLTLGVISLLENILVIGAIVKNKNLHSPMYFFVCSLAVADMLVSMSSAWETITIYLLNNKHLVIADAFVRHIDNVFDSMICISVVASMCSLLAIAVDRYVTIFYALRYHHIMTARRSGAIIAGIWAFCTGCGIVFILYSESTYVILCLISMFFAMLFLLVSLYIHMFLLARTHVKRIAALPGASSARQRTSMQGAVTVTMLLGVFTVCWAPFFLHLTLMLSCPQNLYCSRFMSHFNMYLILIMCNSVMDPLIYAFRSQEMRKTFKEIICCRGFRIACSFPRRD", "assay": "Radioligand binding, human melanocortin MC5 membranes, FlashPlate, [125I]-NDP-αMSH", "outline": "(§2)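 Cloned human receptor membranes were coated onto FlashPlate wells and incubated with radioligand and compound (added from a 0.5 mM DMSO daughter plate) for 1 hour at room temperature in the dark. Scintillation counting gave percent inhibition, with DMSO defining total and reference ligand defining non-specific binding.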"}, "[3]": {"biological_target": "T3, Human μ-opioid (MOP) (Homo sapiens, UniProt P35372)", "T3 construct": "purchased Perkin Elmer Biosignal", "T3 sequence (P35372 whole entry)": "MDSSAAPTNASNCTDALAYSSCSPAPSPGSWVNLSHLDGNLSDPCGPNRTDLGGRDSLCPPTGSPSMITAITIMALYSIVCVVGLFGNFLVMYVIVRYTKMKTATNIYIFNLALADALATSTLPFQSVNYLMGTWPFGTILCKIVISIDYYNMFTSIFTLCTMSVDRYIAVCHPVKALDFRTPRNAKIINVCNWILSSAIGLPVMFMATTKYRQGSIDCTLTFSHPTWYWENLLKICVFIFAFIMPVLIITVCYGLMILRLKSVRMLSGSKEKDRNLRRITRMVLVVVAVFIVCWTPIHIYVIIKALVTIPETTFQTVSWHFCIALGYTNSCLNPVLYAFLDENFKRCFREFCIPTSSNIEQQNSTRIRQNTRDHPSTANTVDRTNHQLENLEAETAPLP", "assay": "Radioligand binding, human μ-opioid (MOP) membranes, FlashPlate, [3H]-Naloxone", "outline": "as §2"}, "[4]": {"biological_target": "T4, Human κ-Opioid (KOP) (Homo sapiens, UniProt P41145)", "T4 construct": "purchased Perkin Elmer Biosignal", "T4 sequence (P41145 whole entry)": "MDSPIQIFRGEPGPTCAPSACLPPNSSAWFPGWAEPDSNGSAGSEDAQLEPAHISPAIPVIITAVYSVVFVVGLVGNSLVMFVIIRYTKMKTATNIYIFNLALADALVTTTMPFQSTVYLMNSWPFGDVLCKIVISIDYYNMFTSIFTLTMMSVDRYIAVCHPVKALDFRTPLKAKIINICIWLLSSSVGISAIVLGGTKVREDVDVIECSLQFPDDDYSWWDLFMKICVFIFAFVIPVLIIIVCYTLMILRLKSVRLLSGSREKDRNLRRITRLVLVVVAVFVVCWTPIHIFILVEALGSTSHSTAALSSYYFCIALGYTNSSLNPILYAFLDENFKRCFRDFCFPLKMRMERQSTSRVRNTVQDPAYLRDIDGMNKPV", "assay": "Radioligand binding, human κ-opioid (KOP) membranes, filtration, [3H]-Diprenorphine", "outline": "as §1"}, "[5]": {"biological_target": "T5, Human Melanocortin (MC3) (Homo sapiens, UniProt P41968)", "T5 construct": "purchased Perkin Elmer Biosignal", "T5 sequence (P41968 whole entry)": "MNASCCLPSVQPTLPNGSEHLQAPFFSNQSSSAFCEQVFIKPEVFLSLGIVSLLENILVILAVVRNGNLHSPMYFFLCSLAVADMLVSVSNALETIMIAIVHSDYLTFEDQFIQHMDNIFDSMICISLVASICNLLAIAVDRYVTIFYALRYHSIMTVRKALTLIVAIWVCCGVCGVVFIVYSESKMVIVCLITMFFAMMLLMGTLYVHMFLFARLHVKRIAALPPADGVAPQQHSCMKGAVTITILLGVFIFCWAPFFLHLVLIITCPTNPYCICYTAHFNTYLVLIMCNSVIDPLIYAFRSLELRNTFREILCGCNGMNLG", "assay": "Radioligand binding, human melanocortin MC3 membranes, FlashPlate, [125I]-NDP-αMSH", "outline": "as §2"}, "[6]": {"biological_target": "T6, Human Melanocortin (MC4) (Homo sapiens, UniProt P32245)", "T6 construct": "purchased Perkin Elmer Biosignal", "T6 sequence (P32245 whole entry)": "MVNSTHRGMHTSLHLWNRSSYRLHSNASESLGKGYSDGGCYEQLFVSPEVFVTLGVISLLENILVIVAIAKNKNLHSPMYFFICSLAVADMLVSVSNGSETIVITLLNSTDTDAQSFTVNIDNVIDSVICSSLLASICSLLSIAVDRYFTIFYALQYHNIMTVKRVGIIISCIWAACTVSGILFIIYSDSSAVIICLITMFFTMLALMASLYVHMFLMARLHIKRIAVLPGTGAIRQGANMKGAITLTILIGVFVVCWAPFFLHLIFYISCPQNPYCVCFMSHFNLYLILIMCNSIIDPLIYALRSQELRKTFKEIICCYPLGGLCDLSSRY", "assay": "Radioligand binding, human melanocortin MC4 membranes, FlashPlate, [125I]-NDP-αMSH", "outline": "as §2"}, "[7]": {"biological_target": "T7, Human opioid (ORL1) (Homo sapiens, UniProt P41146)", "T7 construct": "purchased Perkin Elmer Biosignal", "T7 sequence (P41146 whole entry)": "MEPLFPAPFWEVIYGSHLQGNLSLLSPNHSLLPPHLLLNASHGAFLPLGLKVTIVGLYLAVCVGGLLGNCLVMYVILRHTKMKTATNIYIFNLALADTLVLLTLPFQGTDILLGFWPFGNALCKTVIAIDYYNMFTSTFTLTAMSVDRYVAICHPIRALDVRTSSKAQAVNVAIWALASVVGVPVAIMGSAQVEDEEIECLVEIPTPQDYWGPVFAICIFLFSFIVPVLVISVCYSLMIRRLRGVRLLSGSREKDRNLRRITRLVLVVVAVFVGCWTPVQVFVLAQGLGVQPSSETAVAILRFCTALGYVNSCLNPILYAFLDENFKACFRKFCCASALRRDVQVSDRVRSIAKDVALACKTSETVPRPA", "assay": "Radioligand binding, human opioid ORL1 membranes, FlashPlate, [125I]-Nociceptin", "outline": "as §2"}, "[8]": {"biological_target": "T8, Human neuropeptide Y (NPY-Y1) (Homo sapiens, UniProt P25929)", "T8 construct": "purchased Perkin Elmer Biosignal", "T8 sequence (P25929 1-384)": "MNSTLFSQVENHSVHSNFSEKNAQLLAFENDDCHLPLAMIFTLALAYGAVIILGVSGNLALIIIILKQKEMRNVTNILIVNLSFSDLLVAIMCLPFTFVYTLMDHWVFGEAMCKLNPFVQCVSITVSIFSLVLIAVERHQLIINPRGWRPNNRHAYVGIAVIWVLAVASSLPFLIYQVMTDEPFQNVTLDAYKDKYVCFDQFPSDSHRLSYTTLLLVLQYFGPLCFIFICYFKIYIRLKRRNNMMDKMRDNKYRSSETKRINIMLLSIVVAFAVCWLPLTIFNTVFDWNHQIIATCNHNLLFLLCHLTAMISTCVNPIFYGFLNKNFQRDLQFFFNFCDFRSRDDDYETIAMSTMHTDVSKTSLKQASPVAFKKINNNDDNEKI", "assay": "Radioligand binding, human neuropeptide Y NPY-Y1 membranes, FlashPlate, [125I]-PYY", "outline": "as §2"}, "[9]": {"biological_target": "T9, Mouse urotensin (mUR2) (Mus musculus, UniProt Q8VIH9)", "T9 construct": "purchased Perkin Elmer Biosignal", "T9 sequence (Q8VIH9 1-385)": "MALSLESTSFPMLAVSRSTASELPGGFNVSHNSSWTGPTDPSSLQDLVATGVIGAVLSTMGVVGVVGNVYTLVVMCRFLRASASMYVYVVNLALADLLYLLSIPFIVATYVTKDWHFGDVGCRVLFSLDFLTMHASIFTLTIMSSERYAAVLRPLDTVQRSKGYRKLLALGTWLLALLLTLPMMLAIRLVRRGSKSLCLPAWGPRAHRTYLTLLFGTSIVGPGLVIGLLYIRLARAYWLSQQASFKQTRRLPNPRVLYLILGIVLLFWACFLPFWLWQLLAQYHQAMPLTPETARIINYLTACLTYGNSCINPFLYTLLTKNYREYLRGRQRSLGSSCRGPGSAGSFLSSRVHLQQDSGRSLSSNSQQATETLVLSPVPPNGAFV", "assay": "Radioligand binding, mouse urotensin mUR2 membranes, FlashPlate, [125I]-Urotensin II", "outline": "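Cloned mouse urotensin (mUR2) receptor membranes from Perkin Elmer Biosignal were immobilized in FlashPlate microplates using a proprietary coating. Each well got 19.5 μl buffer, then 0.5 μl of DMSO, reference ligand, or compound. Adding 5 μl of [125I]-Urotensin II, diluted to 5× final concentration in binding buffer, started binding. Plates were sealed with TopSeal-A and incubated 1 hour at room temperature in the dark. Wells were counted for 30 seconds each on a TopCount after a 60-second delay, and percentage inhibition was calculated.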"}, "[10]": {"biological_target": "T10, Human melanin-concentrating hormone (MCH1) (Homo sapiens, UniProt Q99705)", "T10 construct": "purchased Perkin Elmer Biosignal", "T10 sequence (Q99705 whole entry)": "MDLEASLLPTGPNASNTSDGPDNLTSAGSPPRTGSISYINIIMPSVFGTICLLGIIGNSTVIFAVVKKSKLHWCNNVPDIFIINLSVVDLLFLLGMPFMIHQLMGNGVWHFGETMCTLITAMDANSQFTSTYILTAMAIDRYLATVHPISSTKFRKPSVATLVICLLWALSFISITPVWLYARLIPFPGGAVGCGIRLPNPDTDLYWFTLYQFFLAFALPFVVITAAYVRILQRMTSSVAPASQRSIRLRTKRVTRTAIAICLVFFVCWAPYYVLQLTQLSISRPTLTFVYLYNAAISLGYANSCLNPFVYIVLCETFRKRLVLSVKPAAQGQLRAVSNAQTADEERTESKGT", "assay": "Radioligand binding, human melanin-concentrating hormone MCH1 membranes, FlashPlate, [125I]-S36057", "outline": "as §2"}, "[11]": {"biological_target": "T11, Human δ-opioid (DOP) (Homo sapiens, UniProt P41143)", "T11 construct": "purchased Perkin Elmer Biosignal", "T11 sequence (P41143 whole entry)": "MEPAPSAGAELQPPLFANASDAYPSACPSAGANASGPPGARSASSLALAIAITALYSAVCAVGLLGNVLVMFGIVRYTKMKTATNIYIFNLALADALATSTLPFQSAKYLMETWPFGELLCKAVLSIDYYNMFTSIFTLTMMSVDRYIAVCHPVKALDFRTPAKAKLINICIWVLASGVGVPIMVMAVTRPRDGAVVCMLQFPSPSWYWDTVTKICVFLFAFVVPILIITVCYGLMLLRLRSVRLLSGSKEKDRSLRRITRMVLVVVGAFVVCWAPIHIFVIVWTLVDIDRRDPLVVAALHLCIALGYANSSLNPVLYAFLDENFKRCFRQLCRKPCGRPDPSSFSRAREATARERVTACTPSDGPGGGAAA", "assay": "Radioligand binding, human δ-opioid (DOP) membranes, FlashPlate, [3H]-Bremazocine", "outline": "as §2"}},
  "data": [
    {"smiles": "N=C(N)NCCC(=O)N[C@H]1C(OCc2ccc(Cl)cc2)O[C@H](COCc2ccccc2)[C@@H](O)[C@@H]1OCc1ccc2ccccc2c1", "note": "(stereo partly shown) [compound 530]", "values": [
      {"measurement": "A8: inhibition of radioligand binding, human neurokinin (NK1)", "setting": "[1]; [125I]-Substance P", "value": "+ (“+” indicates greater than 50% inhibition at 10 μM)"},
      {"measurement": "A5: inhibition of radioligand binding, human melanocortin (MC5)", "setting": "[2]; [125I]-NDP-αMSH", "value": "+ (“+” indicates greater than 50% inhibition at 10 μM)"},
      {"measurement": "A7: inhibition of radioligand binding, human μ-opioid (MOP)", "setting": "[3]; [3H]-Naloxone", "value": "+ (“+” indicates greater than 50% inhibition at 10 μM)"},
      {"measurement": "A2: inhibition of radioligand binding, human κ-opioid (KOP)", "setting": "[4]; [3H]-Diprenorphine", "value": "+ (“+” indicates greater than 50% inhibition at 10 μM)"},
      {"measurement": "A3: inhibition of radioligand binding, human melanocortin (MC3)", "setting": "[5]; [125I]-NDP-αMSH", "value": "+ (“+” indicates greater than 50% inhibition at 10 μM)"},
      {"measurement": "A4: inhibition of radioligand binding, human melanocortin (MC4)", "setting": "[6]; [125I]-NDP-αMSH", "value": "+ (“+” indicates greater than 50% inhibition at 10 μM)"},
      {"measurement": "A10: inhibition of radioligand binding, human opioid (ORL1)", "setting": "[7]; [125I]-Nociceptin", "value": "+ (“+” indicates greater than 50% inhibition at 10 μM)"},
      {"measurement": "A9: inhibition of radioligand binding, human neuropeptide Y (NPY-Y1)", "setting": "[8]; [125I]-PYY", "value": "− (“−” indicates less than 50% inhibition at 10 μM)"},
      {"measurement": "A11: inhibition of radioligand binding, mouse urotensin (mUR2)", "setting": "[9]; [125I]-Urotensin II", "value": "− (“−” indicates less than 50% inhibition at 10 μM)"},
      {"measurement": "A6: inhibition of radioligand binding, human melanin-concentrating hormone (MCH1)", "setting": "[10]; [125I]-S36057", "value": "+ (“+” indicates greater than 50% inhibition at 10 μM)"},
      {"measurement": "A1: inhibition of radioligand binding, human δ-opioid (DOP)", "setting": "[11]; [3H]-Bremazocine", "value": "− (“−” indicates less than 50% inhibition at 10 μM)"}
    ]},
    {"smiles": "CO[C@H]1[C@H](O)[C@@H](COCc2ccc(Cl)cc2)OC(OCc2ccc3ccccc3c2)[C@@H]1NC(=O)CCCNC(=N)N", "note": "(stereo partly shown) [compound 81]", "values": [
      {"measurement": "A8 radioligand binding inhibition", "setting": "[1]; human neurokinin NK1 membranes", "value": "+ (“+” indicates greater than 50% inhibition at 10 μM)"},
      {"measurement": "A5 radioligand binding inhibition", "setting": "[2]; human melanocortin MC5 membranes", "value": "+ (“+” indicates greater than 50% inhibition at 10 μM)"},
      {"measurement": "A7 radioligand binding inhibition", "setting": "[3]; human μ-opioid (MOP) membranes", "value": "+ (“+” indicates greater than 50% inhibition at 10 μM)"},
      {"measurement": "A2 radioligand binding inhibition", "setting": "[4]; human κ-opioid (KOP) membranes", "value": "+ (“+” indicates greater than 50% inhibition at 10 μM)"},
      {"measurement": "A3 radioligand binding inhibition", "setting": "[5]; human melanocortin MC3 membranes", "value": "+ (“+” indicates greater than 50% inhibition at 10 μM)"},
      {"measurement": "A4 radioligand binding inhibition", "setting": "[6]; human melanocortin MC4 membranes", "value": "+ (“+” indicates greater than 50% inhibition at 10 μM)"},
      {"measurement": "A10 radioligand binding inhibition", "setting": "[7]; human ORL1 membranes", "value": "− (“−” indicates less than 50% inhibition at 10 μM)"},
      {"measurement": "A9 radioligand binding inhibition", "setting": "[8]; human NPY-Y1 membranes", "value": "− (“−” indicates less than 50% inhibition at 10 μM)"},
      {"measurement": "A11 radioligand binding inhibition", "setting": "[9]; mouse urotensin mUR2 membranes", "value": "− (“−” indicates less than 50% inhibition at 10 μM)"},
      {"measurement": "A6 radioligand binding inhibition", "setting": "[10]; human MCH1 membranes", "value": "− (“−” indicates less than 50% inhibition at 10 μM)"},
      {"measurement": "A1 radioligand binding inhibition", "setting": "[11]; human δ-opioid (DOP) membranes", "value": "− (“−” indicates less than 50% inhibition at 10 μM)"}
    ]}
  ]
}
